Experimental data taken from patent publication US11090318B2, “Wound healing promoter” (NAHLS CORPORATION CO., LTD., priority 2017, dated 2021).
Structures can show the parent of a compound that is named as a salt.

Legend:
[1] = tested on: Mouse fetus-derived fibroblasts; experiment: Gene expression in fibroblasts with or without TGF-β (real-time PCR); type: cell-based; settings: for PDLIM2 gene expression: 10 μg/mL, FIG. 6
Protocol: Mouse fetus-derived fibroblasts were spread or inoculated in a 10% FCS-containing Dulbecco's modified Eagle medium (DMEM) and cultured for 24 hours. The 10% FCS-containing DMEM was then removed, and a fresh DMEM devoid of FCS was added, followed by cultivation for further 24 hours. Next, the DMEM containing the cells was combined with Nahlsgen or D-AP6 obtained in Preparation Example 1 to a concentration of 10 μg/mL, cultured for 5 hours, further combined with TGF-β, and cultured for further 5 hours. After the cultivation, RNAs or proteins were recovered, and the quantities of MMP3, MMP9, MMP13, FGF, TGF-β, amphiregulin, PDLIM2, and hyaluronic acid (HSA2) were determined using the real-time PCR technique.

[2] = tested on: domestic dog affected by conjunctivitis; experiment: Eye drops in a domestic dog affected by conjunctivitis; type: in vivo; settings: antibiotic alone by instillation twice a day for one year or longer, before preparation (6)
Protocol: The pharmaceutical preparation (6) was administered as drops to the eyes of a domestic dog affected by conjunctivitis, and 30 minutes later an antibiotic (cefmenoxime hydrochloride 0.5%) was administered as drops to the eyes. This process was repeated twice a day for 5 days.
The domestic dog had suffered from signs of dry eye syndrome and often undergone conjunctivitis resulting from bacterial infection.

[3] = 10 μg/mL together with TGF-β, compared with TGF-β alone
[4] = substance added alone, Nahlsgen or D-AP6 10 μg/mL

N[C@H](CCCCP(=O)(O)O)C(=O)O [D-AP6, D-2-amino-6-phosphonohexanoic acid monohydrate]
expression of FGF [1, 3]: significantly increased the expression levels as compared with the addition of TGF-β alone
expression of MMP3 [1, 3]: significantly increased the expression levels as compared with the addition of TGF-β alone
expression of MMP9 [1, 3]: significantly increased the expression levels as compared with the addition of TGF-β alone
expression of MMP13 [1, 3]: significantly increased the expression levels as compared with the addition of TGF-β alone
expression of TGF-β [1, 3]: significantly increased the expression levels as compared with the addition of TGF-β alone
expression of amphiregulin [1, 3]: significantly increased the expression levels as compared with the addition of TGF-β alone
expression of hyaluronic acid [1, 3]: significantly increased the expression levels as compared with the addition of TGF-β alone
PDLIM2 gene expression [1]: reduced PDLIM2 gene expression
expression of FGF [1, 4]: approximately no change in the expression levels
expression of MMP3 [1, 4]: approximately no change in the expression levels
expression of MMP9 [1, 4]: approximately no change in the expression levels
expression of MMP13 [1, 4]: approximately no change in the expression levels
expression of TGF-β [1, 4]: approximately no change in the expression levels
expression of amphiregulin [1, 4]: approximately no change in the expression levels
expression of hyaluronic acid [1, 4]: approximately no change in the expression levels

COP(=O)(CCC(N)C(=O)O)Oc1cccc(CC(=O)O)c1 (centres unmarked) [Nahlsgen]
expression of FGF [1, 3]: significantly increased the expression levels as compared with the addition of TGF-β alone
expression of MMP3 [1, 3]: significantly increased the expression levels as compared with the addition of TGF-β alone
expression of MMP9 [1, 3]: significantly increased the expression levels as compared with the addition of TGF-β alone
expression of MMP13 [1, 3]: significantly increased the expression levels as compared with the addition of TGF-β alone
expression of TGF-β [1, 3]: significantly increased the expression levels as compared with the addition of TGF-β alone
expression of amphiregulin [1, 3]: significantly increased the expression levels as compared with the addition of TGF-β alone
expression of hyaluronic acid [1, 3]: significantly increased the expression levels as compared with the addition of TGF-β alone
PDLIM2 gene expression [1]: reduced PDLIM2 gene expression
expression of FGF [1, 4]: approximately no change in the expression levels
expression of MMP3 [1, 4]: approximately no change in the expression levels
expression of MMP9 [1, 4]: approximately no change in the expression levels
expression of MMP13 [1, 4]: approximately no change in the expression levels
expression of TGF-β [1, 4]: approximately no change in the expression levels
expression of amphiregulin [1, 4]: approximately no change in the expression levels
expression of hyaluronic acid [1, 4]: approximately no change in the expression levels

CO/N=C(\C(=O)N[C@@H]1C(=O)N2C(C(=O)O)=C(CSc3nnnn3C)CS[C@H]12)c1csc(N)n1 [antibiotic, cefmenoxime hydrochloride]
curative effects [2]: failed to enjoy curative effects

TGF-β [reference compound]
expression of FGF [1, 4]: increased the expression
expression of MMP3 [1, 4]: increased the expression
expression of MMP9 [1, 4]: increased the expression
expression of MMP13 [1, 4]: increased the expression
expression of TGF-β [1, 4]: increased the expression
expression of amphiregulin [1, 4]: increased the expression
expression of hyaluronic acid [1, 4]: increased the expression
